Measured values published in patent US9266900B2, “Additives for improved isohexide products” (ARCHER DANIELS MIDLAND COMPANY, priority 2012, dated 2016).
Values joined by “and” are separate entries in the source; they are usually repeats but may differ in a detail not shown here. Identical values can stand only once.

Assays:
[1] = Thermal aging of 85% solution of the distillate in water at 85 deg C. up to 28 days; format: physicochemical; settings: for formic acid concentration, final sample / furfural concentration, final sample / APHA color, day 28 / formic acid concentration, initially / furfural concentration, initially / APHA color, time zero: 85% solution; for formic acid concentration, final sample / furfural concentration, final sample / APHA color, day 28: 85 deg C.; for formic acid concentration, final sample / furfural concentration, final sample: 28 days; for APHA color, day 28: day 28, final diluted (20%); for formic acid concentration, initially / furfural concentration, initially: initial; for APHA color, time zero: diluted (20%)
[2] = Distillation of crude isosorbide mixture with added antioxidant: co-distillation and initial distillate color; format: physicochemical; settings: for initial APHA color of the neat distillate: neat distillate after distillation, ASTM D1209; for additive distilled with the isosorbide / recovered in the distillate by UPLC analysis: short path distillation, oil bath 185 to 195 degrees Celsius, less than 2 torr; for antioxidant recovered in the distillate, yield: co-distilled with isosorbide
Procedure: A 500 mL boiling flask equipped with a Teflon stir bar was charged with 100 g of ion-exchanged (strong acid cation/strong base anion-exchanged), dewatered, molten isosorbide. While stirring, 40.02 mg of 2,6-di-tert-butyl-4-methoxyphenol (DTMP), previously dissolved in 2 mL of absolute ethanol, was added via pipette, indicating the DTMP concentration as 400 ppm in the matrix. The flask was then outfitted with a still head, condenser, and receiver, placed under a vacuum of <2 torr, and placed in a digitally controlled oil bath. The bath was gradually heated to 190 degrees Celsius while maintaining a vacuum. At a bath temperature of approximately 155 degrees, isosorbide began to distill (vapor temperature of 150 deg C.). Continuous distillation occurred for approximately 30 minutes. 45.6 grams of clear, colorless isosorbide was collected, whose APHA color was measured as 6. Quantitative analysis by UPLC determined the concentration of DTMP in the distilled isosorbide to be 503 ppm.
In this as in subsequent examples, a quantity of an antioxidant under evaluation was dissolved in 1-2 mL of absolute ethanol and then added via pipette to a crude isosorbide mixture which had been treated previously to remove ionic species therefrom. Amounts were set so that the concentration of the antioxidant in the crude isosorbide mixture was in the range of from 250 to 900 ppm by weight. The stabilized crude isosorbide mixtures were then distilled in turn in a short path, jacketed distillation apparatus consisting of a 250 cc 3 neck boiling flask containing a PTFE magnetic stir bar in which one neck was fitted with a rubber septum, a thermocouple extended into the mixture being distilled from a central neck, and the third neck was equipped with the short path head leading to a boiling flask receiver maintained at 80 degrees Celsius. The boiling flask was immersed in an oil bath maintained at from 185 to 195 degrees Celsius, and distillation occurred under a vacuum pressure of less than 2 torr.

[3] = Heating of isosorbide distillate in 200° C. oil bath for 1 hr under air, APHA color by UV/vis; format: physicochemical; settings: 0.5 g diluted with 2 mL water
Procedure: About, an 11 gram sample of the isosorbide distillate was added to a glass tube and capped with a septum. The glass tube was then submerged in a 200° C. oil bath for 1 hr under air. Approximately 0.5 g of the heated distillate sample was subsequently diluted with 2 mL of water and analyzed by UV/vis to obtain an APHA color value. An APHA color of approximately 250 was observed, compared to an APHA value for a distillate sample absent the DTMP additive that was offscale (>500).
About an 11 gram sample of the isosorbide distillate was added to a glass tube and capped with a septum. The glass tube was then submerged in a 200° C. oil bath for 1 hr under air.

[4] = Thermal aging of neat distillate in 85 deg C. oven under air up to 28 days; format: physicochemical; settings: for formic acid after 28 days / furfural after 28 days / APHA color after 28 days: 85 deg C.; for APHA color after 28 days: air, measured as a 20% solution; for APHA color, time zero: UV/vis; for color stability criteria after accelerated aging: 85 degrees Celsius, 4 weeks, APHA less than 200 neat distillate and less than 250 for 85% solution
Procedure: The DTMP-stabilized distillate was further tested for color storage stability by thermal aging over a more extended period of time, in particular, by preparing typically five 10 mL headspace vials of each of the neat distillate and an 85% solution of the distillate in water in 0.5 gram sample portions. One vial of the set of five for the neat distillate or the 85% solution was set aside as the “time zero” data point. The time zero sample was diluted with 2 mL of water and analyzed.
For the neat distillate, the APHA color of the time zero sample was less than 20 by UV/vis. All other decomposition products were less than 5 ppm. The four other vials of the neat distillate were then placed in an 85 deg C. oven trader air, and one vial was removed at 7 days, another at 14 days, another at 21 days, and the last of the four at 28 days. Once removed from the oven, each sample was allowed to cool to room temperature and diluted with 2 mL of water. The sample was then analyzed by UV/vis, UPLC, LC-MS, and GC. After 28 days, APHA color, measured as a 20% solution, was only 28. Furfural and formic acid were measured at 18 ppm and 39 ppm, respectively.
The BBTC-stabilized distillate was further tested for color storage stability by thermal aging over a more extended period of time, in particular, by preparing typically five 10 mL headspace vials of each of the neat distillate and an 85% solution of the distillate in water in 0.5 gram sample portions. One vial of the set of five for the neat distillate or the 85% solution was set aside as the “time zero” data point. The time zero sample was diluted with 2 mL of water and analyzed.
For the neat distillate, the APHA color of the time zero sample was less than 1 by UV/vis. Formic acid concentration in the time zero sample was less than 5 ppm, while furfural concentration was less than 1 ppm. The four other vials of the neat distillate were then placed in an 85 deg C. oven under air, and one vial was removed at 7 days, another at 14 days, another at 21 days, and the last of the four at 28 days. Once removed from the oven, each sample was allowed to cool to room temperature and diluted with 2 mL of water. Each sample was then analyzed by UV/vis, UPLC, LC-MS, and GC. After 28 days, APHA color, measured as a 20% solution, was 191. Furfural and formic acid were measured at 298 ppm and 6,102 ppm, respectively.

[5] = Solubility and retention of stabilizer in isosorbide product; settings: 85% solution isosorbide product
[6] = stable = formic acid less than 5 ppm and monoanhydrohexoses less than 50 ppm, dry weight basis; cited from earlier work
[7] = Isosorbide (100% molten) mixed with additives, heated 1-2 hours at 200 degrees Celsius, accelerated aging tests; settings: additive screening

formic acid concentration, final sample [1] | APHA color, day 28 [1] | formic acid concentration, initially [1] | APHA color, time zero [1] | initial APHA color of the neat distillate [2] | additive distilled with the isosorbide / recovered in the distillate by UPLC analysis [2] | formic acid after 28 days ([4]; neat distillate) | APHA color after 28 days ([4]; neat distillate) | formic acid concentration, time zero ([4]; neat distillate, time zero) | APHA color, time zero ([4]; neat distillate, time zero) | SMILES | stability of composition according to the '477 patent [6] | other results
4264 ppm | more than 500 | less than 5 ppm | less than 1 | 10 | About 83% | 6,102 ppm | 191 | less than 5 ppm | less than 1 | CCCC(c1cc(C(C)(C)C)c(O)cc1C)c1cc(C(C)(C)C)c(O)cc1C [BBTC, 4,4′-butylidenebis(6-t-butyl-m-cresol)] |  | furfural concentration, final sample [1]: 298 ppm; furfural concentration, initially [1]: less than 1 ppm; APHA color after heating [3]: offscale; furfural after 28 days ([4]; neat distillate): 298 ppm; furfural concentration, time zero ([4]; neat distillate, time zero): less than 1 ppm
 |  |  |  |  |  |  |  |  |  | Cc1cc(C(C)(C)C)c(O)c(C(C)(C)C)c1 [BHT] | stable | 
63 ppm | 50 | less than 5 ppm | 5 | 13 | About 84% | 74 ppm | 17 | less than 5 ppm | less than 15 | COc1cc(C)cc(OC)c1O [DMMP, 2,6-dimethoxy-4-methylphenol] |  | solubility in 85% solution product [5]: continued good solubility; antioxidant recovered in the distillate, yield [2]: 84%; APHA color after heating [3]: 205; color stability criteria after accelerated aging [4]: criteria were met
 |  |  |  | 18.7 |  |  |  |  |  | COc1cccc(OC)c1O [DMP, 2,6-dimethoxyphenol] |  | antioxidant recovered in the distillate, yield [2]: 64%; color stability criteria after accelerated aging [4]: met the criterion for either the neat distillate or the 85% solution product hut not for both
250 ppm | 150 |  | 0 |  |  | 39 ppm | 28 |  | less than 20 | COc1cc(C(C)(C)C)c(O)c(C(C)(C)C)c1 [DTMP, 2,6-di-tert-butyl-4-methoxyphenol] |  | furfural concentration, final sample [1]: 88 ppm; furfural concentration, initially [1]: less than 5 ppm; 5-hydroxymethylfurfural (HMF) formation ([1]; 85% stabilized sample, aged): < 5 ppm; concentration of additive in the distilled isosorbide by UPLC ([2]; 400 ppm in the matrix before distillation): 503 ppm; antioxidant recovered in the distillate, yield [2]: 50%; APHA color after heating [3]: approximately 250; color stability criteria after accelerated aging [4]: met the criterion for either the neat distillate or the 85% solution product hut not for both; furfural after 28 days ([4]; neat distillate): 18 ppm; all other decomposition products, time zero ([4]; neat distillate, time zero): less than 5 ppm; 5-hydroxymethylfurfural (HMF) formation ([4]; neat stabilized sample, aged): < 5 ppm
 |  |  |  |  |  |  |  |  |  | O=P([O-])([O-])O.[Na+].[Na+] [Na2HPO4] | stable | 
 |  |  |  |  |  |  |  |  |  | O=B[O-].[Na+] [NaBO2] | stable | 
 |  |  |  |  |  |  |  |  |  | [Na+].[OH-] [NaOH] | stable | 
770 ppm | more than 500 | less than 5 ppm | less than 1 |  | Virtually a quantitative recovery | 3458 ppm | 233 | less than 5 ppm | 110 | CC(C)(C)c1cc(O)ccc1O [TBHQ, tert-butylhydroquinone] |  | furfural concentration, final sample [1]: 257 ppm; furfural concentration, initially [1]: less than 1 ppm; furfural after 28 days ([4]; neat distillate): 182 ppm; furfural concentration, time zero ([4]; neat distillate, time zero): less than 1 ppm
3360 ppm | more than 500 | less than 5 ppm | 5 | 15 | About 26% | 3291 ppm | over 500 | less than 5 ppm | 15 | Cc1c(C)c2c(c(C)c1O)CCC(C)(C(=O)O)O2 (stereo not shown) [Trolox™, 6-hydroxy-2,5,7,8-tetramethylchromane-2-carboxylic acid] |  | furfural concentration, final sample [1]: 512 ppm; furfural concentration, initially [1]: less than 1 ppm; furfural after 28 days ([4]; neat distillate): 460 ppm; furfural concentration, time zero ([4]; neat distillate, time zero): less than 1 ppm; rate of color formation compared to control vials containing distillate alone ([4]; thermal aging, stabilized samples vs control): developed color more quickly
 |  |  |  |  |  |  |  |  |  | C1OC1COC1COC2C(OCC3CO3)COC12 (stereo not shown) [isosorbide diglycidol ether] |  | effect on color stability of isosorbide [7]: ineffective in the absence of an antioxidant
 |  |  |  |  |  |  |  |  |  | C1COCCN1 [morpholine] | stable | 
 |  |  |  |  |  |  |  |  |  | O=C1O[C@H]([C@@H](O)CO)C(O)=C1O [vitamin C] | stable | 

SMILES | formic acid concentration, final sample [1] | APHA color, day 28 [1] | formic acid concentration, initially [1] | APHA color, time zero [1] | initial APHA color of the neat distillate [2] | additive distilled with the isosorbide / recovered in the distillate by UPLC analysis [2] | formic acid after 28 days ([4]; neat distillate) | APHA color after 28 days ([4]; neat distillate) | formic acid concentration, time zero ([4]; neat distillate, time zero) | APHA color, time zero ([4]; neat distillate, time zero) | stability of composition according to the '477 patent [6] | other results
COc1ccc(O)c(C(C)(C)C)c1 [BHA, butylated hydroxyanisole] | 44 ppm | 30 | less than 5 ppm | less than 1 | 14.1 and 14 | About 63% | 21 ppm | 40 | less than 5 ppm | less than 15 |  | solubility in 85% solution product [5]: continued good solubility; antioxidant recovered in the distillate, yield [2]: 63%; APHA color after heating [3]: 222; color stability criteria after accelerated aging [4]: criteria were met
